Here are results for four compounds from publication PMC5884524, “A high content, high throughput cellular thermal stability assay for measuring drug-target engagement in living cells” (PLoS ONE, 2018).

Several values for one entry are separate records, joined by “and”; a condition that tells them apart may be missing. Equal entries are not always repeated. Where two headings read alike, the source gives them in different places. Peptide text beside a SMILES is read from it. * marks the point of attachment. Cbz = O=C(OCc1ccccc1)*

The target of test [1] is T1, Chk1 (Homo sapiens, UniProt O14757).
T1 sequence (O14757 1-476): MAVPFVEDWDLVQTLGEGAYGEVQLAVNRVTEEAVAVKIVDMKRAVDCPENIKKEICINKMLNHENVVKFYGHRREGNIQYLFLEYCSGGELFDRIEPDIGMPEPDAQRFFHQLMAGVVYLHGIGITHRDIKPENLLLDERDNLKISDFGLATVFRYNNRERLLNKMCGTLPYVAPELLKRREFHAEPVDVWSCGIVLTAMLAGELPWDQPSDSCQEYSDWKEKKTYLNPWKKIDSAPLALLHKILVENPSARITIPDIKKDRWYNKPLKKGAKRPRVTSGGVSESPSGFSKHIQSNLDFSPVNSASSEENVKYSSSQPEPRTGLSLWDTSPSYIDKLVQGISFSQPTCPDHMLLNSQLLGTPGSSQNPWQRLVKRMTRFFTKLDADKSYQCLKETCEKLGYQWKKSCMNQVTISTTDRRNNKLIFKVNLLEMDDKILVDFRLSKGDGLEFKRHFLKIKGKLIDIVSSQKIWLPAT
Nature of the test: HCIF-CETSA (CETSA by immunofluorescence), low well volume heating, HT29 cells. The test is classed as cell-based. The note with it: for EC50: 25 μL media. The arrangement: Thermal response profile of Chk1 in HT29 cells detected by immunofluorescent imaging with the EP691Y antibody; endogenous in cells; host or cells: HT29. On the procedure:
Compounds were serially diluted in DMSO to 200-times the final assay concentration then diluted 1:200 in media (without FCS). The cell media was removed and replaced with 25 μL of compound in media and incubated at 37°C, 5% CO2 for 10 minutes. The plate was sealed with an aluminum plate seal and heated by floating in a pre-heated water bath (Grant Instruments W14) for 3 minutes. 75 μL of room temperature media (without FCS or compound) was added and the plate incubated at room temperature for 5 minutes. […] Plates were imaged on an Operetta high content imager using a 20x objective and analyzed using Harmony software.

Test [2] addresses T1, Chk1. Nature of the test: Chk1 autophosphorylation (pS296) by immunoblotting and densitometry, HT29 cells. The test is classed as cell-based. On the set-up: Thermal response profile of Chk1 in HT29 cells detected by immunofluorescent imaging with the EP691Y antibody; endogenous in cells; host or cells: HT29. The note with it: for IC50: HT29, 10 min. Here is the method: (§1) Immunoblotting was conducted as previously described.

In the next test the test system is HT29 cells. Nature of the test: S-phase arrest by Hoechst 33342 imaging, HT29 cells. The class given is cell-based, human. To be noted: HT29, 2.5 mM for 18 hours, n = 6 wells ± SD. On the procedure:
(§2) Single cell immunofluorescent imaging was conducted as previously described in CellCarrier 96WP or CellCarrier Ultra 96WP (6005550 or 6055300, Perkin Elmer) and imaged on an Operetta high content imager (Perkin Elmer) using a 10, 20 or 40x objective then analyzed using Harmony software (Perkin Elmer).

For test [3], the target named is T1, Chk1. Briefly: Nuclear pChk1 (S317, S345) by single cell immunofluorescence, HT29 cells. The class given is cell-based. The arrangement: Thermal response profile of Chk1 in HT29 cells detected by immunofluorescent imaging with the EP691Y antibody; endogenous in cells; host or cells: HT29. To be noted: HT29, 2.5 mM for 18 hours. On the procedure: as §2
For test [4], the target named is T1, Chk1. On the set-up: Thermal response profile of Chk1 in HT29 cells detected by immunofluorescent imaging with the EP691Y antibody; endogenous in cells; host or cells: HT29. The note with it: HT29 cells; read-out: CETSA classic EC50; cited from earlier work.
Test [5] concerns the target T1, Chk1. Briefly: HCIF-CETSA (CETSA by immunofluorescence), low well volume heating, HT29 cells. The test is classed as cell-based. The arrangement: Thermal response profile of Chk1 in HT29 cells detected by immunofluorescent imaging with the EP691Y antibody; endogenous in cells; host or cells: HT29. The note with it: HT29, 10 minute incubation, 50 μL media, 51°C (Fig 6D).

Test [6] addresses T1, Chk1. On the set-up: endogenous in cells. The note with it: U2OS cells; read-out: CETSA classic EC50; cited from earlier work.
The target in test [7] is T1, Chk1. Briefly: HCIF-CETSA (CETSA by immunofluorescence), low well volume heating, U2OS cells. The test is classed as cell-based. The note with it: 10 min. Here is the method:
10 000 cells were plated per well of a CellCarrier Ultra 96WP (6055300, Perkin Elmer) and allowed to adhere overnight. Compounds were serially diluted in DMSO to 200-times the final assay concentration then diluted 1:200 in media (without FCS). The cell media was removed and replaced with 25 μL of compound in media and incubated at 37°C, 5% CO2 for 10 minutes. The plate was sealed with an aluminum plate seal and heated by floating in a pre-heated water bath (Grant Instruments W14) for 3 minutes. 75 μL of room temperature media (without FCS or compound) was added and the plate incubated at room temperature for 5 minutes. Cells were fixed by the addition of 100 μL paraformaldehyde (7.4% in PBS) at room temperature for 15 minutes. Cells were washed 3 times with PBS and Chk1 detected with anti-Chk1 rabbit EP691Y monoclonal antibody (Ab40866, Abcam) and an AlexaFluor488 anti-rabbit secondary antibody (A-11034, Thermo Fisher Scientific). Plates were imaged on an Operetta high content imager using a 20x objective and analyzed using Harmony software.

The target of test [8] is T1, Chk1. Briefly: Chk1 autophosphorylation (pS296) by immunoblotting and densitometry, U2OS cells. The test is classed as cell-based. To be noted: 10 min, identical cellular conditions to HCIF-CETSA (Fig 6E). On the procedure:
as §1

The target in test [9] is T1, Chk1. Briefly: Chk1 thermal stability by immunofluorescence, sealed plate submerged in water bath, HT29 cells. The test is classed as cell-based. The arrangement: Thermal response profile of Chk1 in HT29 cells detected by immunofluorescent imaging with the EP691Y antibody; endogenous in cells; host or cells: HT29. To be noted: HT29, 10 μM for 30 minutes, HU treated or untreated, sealed plate 55°C.
Excerpt: (§3) Plates were heated as follows: (i) sealed with adhesive aluminum PCR plate foil and then floated or submerged in a water bath (Grant Instruments W14) containing water pre-heated to the desired temperature or (ii) 1 L of DPBS containing magnesium and calcium (D1283, Sigma) was placed in a clean water bath (SUB6, Grant Instruments) and heated to the required temperature. The media was removed from the wells of the CellCarrier plate and the plate submersed in the DPBS so that all wells were full of DPBS and the plate was not touching the bottom of the water bath. The plate was incubated in the DPBS for 3 minutes, removed, the hot DPBS removed and replaced with 100 μL room temperature DPBS and then incubated at room temperature for 5 minutes. In some experiments, the DPBS was substituted for live cell imaging solution (LCIS, 20 mM Hepes, 140 mM NaCl, 2.5 mM KCl, 1.8 mM CaCl2, 1.0 mM MgCl2, pH 7.4).
as §2

Test [10] concerns the target T1, Chk1. Briefly: Chk1 thermal stability by immunofluorescence, PBS immersion heating, HT29 cells. The class given is cell-based. On the set-up: Thermal response profile of Chk1 in HT29 cells detected by immunofluorescent imaging with the EP691Y antibody; endogenous in cells; host or cells: HT29. The note with it: HT29, 1–10 μM for 30 minutes, heated to 46, 49, 52 or 55°C.
Excerpt: as §3, §2

[11] abbreviates: HT29, 0–40 μM inhibitor, 10 min, 49°C (Fig 8A), read-out: EC50, decrease in nuclear Chk1 fluorescence following heating.

Regarding `N#Cc1cc2c(cn1)[nH]c1ncc(-c3ccc(CN4CCCCC4)cc3)cc12` [GNE-900, reference compound], at Chk1 [1] (setting [11]), the EC50 was 1.3 ± 0.3 µM. Moreover, the IC50 on Chk1 [2] (same dilution series and conditions as HCIF-CETSA (Fig 8B), read-out: IC50, S296 phosphorylation) came to 0.5 µM.

`NC(=O)NO` [HU, Hydroxyurea]: the “Cells exhibiting evidence of S-phase arrest” value in the test with HT29 cells turned out to be 71.4 ± 0.7%. Moreover, on Chk1 [3], the “Increase in nuclear Chk1 pS317” value amounted to 1.9 fold and the “Increase in nuclear Chk1 pS345” value worked out at 1.6 fold.

Regarding `CC(C)C[C@@H](C=O)NC(=O)[C@H](CC(C)C)NC(=O)[C@H](CC(C)C)NC(=O)OCc1ccccc1` [MG-132, reference compound] (Cbz-Leu-Leu-Leu-aldehyde), the “Effect on temperature induced decrease in Chk1 nuclear fluorescence” value at Chk1 [1] (HT29, 5 μM for 2 hours, then DMSO or 3 μM V158411, 49 or 52°C) is “did not block”.

Regarding `CN(C)CC(C)(C)COc1ccc2[nH]c(-c3cc(NC(=O)c4cnn(Cc5ccccc5)c4)c[nH]c3=O)cc2c1` [V158411], the EC50 was 3.3 ± 3.4 µM on Chk1 [4]; 1 µM on Chk1 [5]; 2.3 ± 1.2 µM at Chk1 [6]; 1.4 ± 0.3 µM at Chk1 [7] (U2OS, 25 μL media, 49°C (Fig 6C)); 2 ± 0.9 µM at Chk1 [1] (setting [11]); 1.7 ± 0.4 µM at Chk1 [1] (HT29, 10 min, 49°C (Fig 6B), read-out: HCIF-CETSA EC50, mean of three independent experiments). For the same compound, the EC50 at Chk1 [1] (HT29, 10 min, 49°C (Fig 6B), read-out: HCIF-CETSA EC50, single values of three independent experiments) was 1.9 µM and 1.2 µM; on Chk1 [1] (HT29, 10 min pre-incubation, heated to 46°C (Fig 6A), read-out: EC50, reduction in Chk1 nuclear immunofluorescence) it was 1.9 µM; at Chk1 [1] (HT29, 10 min pre-incubation, heated to 49°C (Fig 6A), read-out: EC50, reduction in Chk1 nuclear immunofluorescence) it was 1.9 µM; at Chk1 [1] (HT29, 10 min pre-incubation, heated to 52°C (Fig 6A), read-out: EC50, reduction in Chk1 nuclear immunofluorescence) it was 2.5 µM. At Chk1 [7] (unheated U2OS, 0–20 μM), the “Effect on mean nuclear Chk1 fluorescence in unheated cells” value is listed as “increased the mean nuclear Chk1 fluorescence”. Moreover, the IC50 against Chk1 [8] was about 0.11 µM; on Chk1 [2] (identical cellular conditions to HCIF-CETSA (Fig 6E), read-out: IC50, Chk1 autophosphorylation (pS296)), about 0.16 µM. Besides, the “Effect on Chk1 autophosphorylation” value on Chk1 [2] (HT29, 0–10 μM for 30 minutes, HU treated and untreated cells (Fig 4B)) was “inhibited Chk1 autophosphorylation”. The “Effect on thermostabilization of total Chk1 or phosphorylated Chk1” value at Chk1 [9] is recorded as “no effect”. In addition, at Chk1 [10], the “Effect on mean nuclear Chk1 intensity after PBS immersion heating” value was “did not alter the mean nuclear Chk1 intensity”.
